Measurements: ChEMBL document CHEMBL4411303, “Synthesis of tetrazole derivatives bearing pyrrolidine scaffold and evaluation of their antifungal activity against Candida albicans” (Eur J Med Chem, 2019)
Values after ≈ are worked out from the molar mass of the structure shown. Active and inactive are the calls of the source. The calls are words filed in the database; no cut-off is given here.

Columns and labels:
Vero = assay: Cytotoxicity against African green monkey Vero cells assessed as reduction in cell viability at 318.16 uM after 18 hrs by XTT assay relative to control; assay type: cell-based; conditions: chlorocebus sabaeus
Candida albicans [1] = assay: Antifungal activity against Candida albicans ATCC 90028 assessed as planktonic growth inhibition at 0.62 uM after 48 hrs by M27-A3 protocol based method relative to control; assay type: functional; conditions: ATCC 90028, 48 h, read-out: GI
Candida albicans [2] = assay: Antifungal activity against Candida albicans ATCC 90028 assessed as planktonic growth inhibition at 39.77 uM after 48 hrs by M27-A3 protocol based method relative to control; assay type: functional; conditions: ATCC 90028, 48 h, read-out: GI
Candida albicans [3] = assay: Antifungal activity against Candida albicans ATCC 90028 assessed as planktonic growth inhibition at 9.94 uM after 48 hrs by M27-A3 protocol based method relative to control; assay type: functional; conditions: ATCC 90028, 48 h, read-out: GI
Candida albicans [4] = assay: Antifungal activity against Candida albicans ATCC 90028 assessed as planktonic growth inhibition at 19.88 uM after 48 hrs by M27-A3 protocol based method relative to control; assay type: functional; conditions: ATCC 90028, 48 h, read-out: GI
Candida albicans [5] = assay: Antifungal activity against Candida albicans ATCC 90028 assessed as planktonic growth inhibition at 0.08 uM after 48 hrs by M27-A3 protocol based method relative to control; assay type: functional; conditions: ATCC 90028, 48 h, read-out: GI
Candida albicans [6] = assay: Fungicidal activity against Candida albicans ATCC 90028 assessed as log reduction in fungal load incubated for 48 hrs followed by replating on sabouraud dextrose agar plate and measured after 48 hrs; assay type: functional
Candida albicans [7] = assay: Antifungal activity against Candida albicans ATCC 90028 assessed as planktonic growth inhibition at 0.16 uM after 48 hrs by M27-A3 protocol based method relative to control; assay type: functional; conditions: ATCC 90028, 48 h, read-out: GI
Candida albicans [8] = assay: Antibiofilm activity against Candida albicans ATCC 90028 assessed as inhibition of biofilm formation […] after 24 hrs by XTT assay relative to control; assay type: functional, organism-based; conditions: ATCC 90028, 24 h
[9] = Selectivity index, ratio of CC50 for African green monkey Vero cells to IC50 for Candida albicans ATCC 90028; assay type: toxicity; conditions: read-out: Ratio CC50/IC50
Candida albicans [10] = assay: Induction of Candida albicans ATCC 90028 internalization in mouse RAW264.7 cells assessed as reduction in fungus-induced cell damage by measuring live and early apoptotic cells at 39.77 uM after 2 hrs acridine orange/ethidium bromide staining based confocal scanning microscopic analysis; assay type: functional, organism-based
Candida albicans [11] = assay: Antifungal activity against Candida albicans ATCC 90028 assessed as planktonic growth inhibition at 2.49 uM after 48 hrs by M27-A3 protocol based method relative to control; assay type: functional; conditions: ATCC 90028, 48 h, read-out: GI
Candida albicans [12] = assay: Antifungal activity against Candida albicans ATCC 90028 assessed as planktonic growth inhibition at 0.31 uM after 48 hrs by M27-A3 protocol based method relative to control; assay type: functional; conditions: ATCC 90028, 48 h, read-out: GI
Candida albicans [13] = assay: Antifungal activity against Candida albicans ATCC 90028 assessed as planktonic growth inhibition at 1.24 uM after 48 hrs by M27-A3 protocol based method relative to control; assay type: functional; conditions: ATCC 90028, 48 h, read-out: GI
Candida albicans [14] = assay: Antifungal activity against Candida albicans ATCC 90028 assessed as planktonic growth inhibition at 4.97 uM after 48 hrs by M27-A3 protocol based method relative to control; assay type: functional; conditions: ATCC 90028, 48 h, read-out: GI
[15] = Toxicity in Galleria mellonella larvae assessed as survival rate at 46.05 uM measured after 48 hrs (reference value: 100%)
Candida albicans [16] = assay: Antifungal activity against Candida albicans ATCC 90028 assessed as reduction in cell growth after 48 to 72 hrs by M27-A3 protocol based method; assay type: functional
Candida albicans [17] = assay: Antifungal activity against Candida albicans ATCC 90028 assessed as planktonic growth inhibition at 1.44 uM after 48 hrs by M27-A3 protocol based method relative to control; assay type: functional; conditions: ATCC 90028, 48 h, read-out: GI
[18] = Toxicity in Galleria mellonella larvae assessed as movement melanization at 46.05 uM measured after 18 hrs (reference value: 0%)
[19] = Toxicity in Galleria mellonella larvae assessed as movement melanization at 46.05 uM measured after 48 hrs (reference value: 0%)
Candida albicans [20] = assay: Induction of reactive oxygen species generation in Candida albicans ATCC 90028 assessed as ROS level at 46.05 uM after 18 hrs by DCFDA probe based flow cytometry (reference value: 0.3%); assay type: functional
[21] = Toxicity in Galleria mellonella larvae assessed as survival rate at 46.05 uM measured after 120 hrs (reference value: 100%)
Candida albicans [22] = assay: Antifungal activity against Candida albicans ATCC 90028 assessed as planktonic growth inhibition at 11.51 uM after 48 hrs by M27-A3 protocol based method relative to control; assay type: functional; conditions: ATCC 90028, 48 h, read-out: GI
Candida albicans [23] = assay: Antifungal activity against Candida albicans ATCC 90028 assessed as reduction in cell growth after 48 to 72 hrs in presence of ergosterol by M27-A3 protocol based method; assay type: functional
Candida albicans [24] = assay: Antifungal activity against Candida albicans ATCC 90028 infected in Galleria mellonella larvae assessed as inhibition of fungus filamentation at 10 uL measured at 24 hrs interval for 144 hrs by HE staining based microscopic analysis; assay type: functional, organism-based
Candida albicans [25] = assay: Antifungal activity against Candida albicans ATCC 90028 assessed as planktonic growth inhibition at 0.09 uM after 48 hrs by M27-A3 protocol based method relative to control; assay type: functional; conditions: ATCC 90028, 48 h, read-out: GI
Candida albicans [26] = assay: Induction of apoptosis in Candida albicans ATCC 90028 assessed as necrotic cells by Annexin V-FITC/propidium iodide staining based flow cytometry; assay type: functional, organism-based
Candida albicans [27] = assay: Inhibition of Candida albicans ATCC 90028 cell adhesion to human TR146 cells at reduction in cell adherence at 46.05 uM relative to control; assay type: functional; conditions: ATCC 90028, TR146
Candida albicans [28] = assay: Antifungal activity against Candida albicans ATCC 90028 assessed as planktonic growth inhibition at 0.72 uM after 48 hrs by M27-A3 protocol based method relative to control; assay type: functional; conditions: ATCC 90028, 48 h, read-out: GI
[29] = Toxicity in Galleria mellonella larvae assessed as cocoon formation at 46.05 uM measured after 18 hrs (reference value: 60 +/- 20%)
[30] = Toxicity in Galleria mellonella larvae assessed as cocoon formation at 46.05 uM measured after 48 hrs (reference value: 100 +/- 0%)
[31] = Toxicity in Galleria mellonella larvae assessed as survival rate at 46.05 uM measured after 18 hrs (reference value: 100%)
Candida albicans [32] = assay: Antifungal activity against Candida albicans ATCC 90028 assessed as planktonic growth inhibition at 5.76 uM after 48 hrs by M27-A3 protocol based method relative to control; assay type: functional; conditions: ATCC 90028, 48 h, read-out: GI
Candida albicans [33] = assay: Selectivity index, ratio of CC50 for induction of necrosis in Candida albicans ATCC 90028 to MIC for Candida albicans ATCC 90028; assay type: functional
Candida albicans [34] = assay: Antifungal activity against Candida albicans ATCC 90028 assessed as planktonic growth inhibition at 0.36 uM after 48 hrs by M27-A3 protocol based method relative to control; assay type: functional; conditions: ATCC 90028, 48 h, read-out: GI
Candida albicans [35] = assay: Cell cycle arrest in Candida albicans ATCC 90028 assessed as accumulation at G0/G1-phase by propidium iodide staining based flow cytometry; assay type: functional, organism-based
Candida albicans [36] = assay: Antifungal activity against Candida albicans ATCC 90028 assessed as planktonic growth inhibition at 23.02 uM after 48 hrs by M27-A3 protocol based method relative to control; assay type: functional; conditions: ATCC 90028, 48 h, read-out: GI
[37] = Toxicity in Galleria mellonella larvae assessed as movement melanization at 46.05 uM measured after 128 hrs (reference value: 0%)
Candida albicans [38] = assay: Antifungal activity against Candida albicans ATCC 90028 infected in Galleria mellonella larvae assessed as induction of pathogen entrapping by haemocytes at 10 uL measured at 24 hrs interval for 144 hrs by HE staining based microscopic analysis; assay type: functional, organism-based
[39] = Toxicity in Galleria mellonella larvae assessed as cocoon formation at 46.05 uM measured after 48 hrs (reference value: 85 +/- 5%)
Candida albicans [40] = assay: Antifungal activity against Candida albicans ATCC 90028 assessed as planktonic growth inhibition at 2.88 uM after 48 hrs by M27-A3 protocol based method relative to control; assay type: functional; conditions: ATCC 90028, 48 h, read-out: GI
Candida albicans [41] = assay: Induction of Candida albicans ATCC 90028 internalization in mouse RAW264.7 cells assessed as reduction in fungus-induced cell damage by measuring live and early apoptotic cells at 46.05 uM after 2 hrs acridine orange/ethidium bromide staining based confocal scanning microscopic analysis; assay type: functional, organism-based
Candida albicans [42] = assay: Induction of apoptosis in Candida albicans ATCC 90028 assessed as necrotic cells at 46.05 uM by Annexin V-FITC/propidium iodide staining based flow cytometry relative to control; assay type: functional
Candida albicans [43] = assay: Antifungal activity against Candida albicans ATCC 90028 assessed as planktonic growth inhibition at 0.18 uM after 48 hrs by M27-A3 protocol based method relative to control; assay type: functional; conditions: ATCC 90028, 48 h, read-out: GI
Candida albicans [44] = assay: Antifungal activity against Candida albicans ATCC 90028 assessed as planktonic growth inhibition at 46.05 uM after 48 hrs by M27-A3 protocol based method relative to control; assay type: functional; conditions: ATCC 90028, 48 h, read-out: GI

Clc1ccc(-c2nnn(CCCN3CCCC3c3ccc(Cl)cc3)n2)cc1 (stereo not drawn)
Activity (Vero): 100% | inhibition of growth at 0.62 µM (Candida albicans [1]): 99.5% | inhibition of growth at 39.77 µM (Candida albicans [2]): 99.6% | inhibition of growth at 9.94 µM (Candida albicans [3]): 99.3% | inhibition of growth at 19.88 µM (Candida albicans [4]): 99.3% | inhibition of growth at 0.08 µM (Candida albicans [5]): 99.6% | log(activity) (Candida albicans [6]): -1.4 | inhibition of growth at 0.16 µM (Candida albicans [7]): 99.5% | IC50 (Candida albicans [8]): 79.5 µM | selectivity ratio [9]: 2 | Activity (Candida albicans [10]): Active | inhibition of growth at 2.49 µM (Candida albicans [11]): 99.7% | inhibition of growth at 0.31 µM (Candida albicans [12]): 99.2% | inhibition of growth at 1.24 µM (Candida albicans [13]): 99% | inhibition of growth at 4.97 µM (Candida albicans [14]): 99.3%

Cc1cccc(C2CCCN2CCCn2nnc(-c3ccccc3)n2)c1 (stereo not drawn)
survival at 48 h, 46.05 µM [15]: 100% | MIC (Candida albicans [16]): 11.5 µM (≈ 4 µg/mL) | inhibition of growth at 1.44 µM (Candida albicans [17]): 99.4% | Activity [18]: 0% | Activity [19]: 0% | Activity (Candida albicans [20]): 7% | survival at 120 h, 46.05 µM [21]: 80% | inhibition of growth at 11.51 µM (Candida albicans [22]): 99.5% | MIC (Candida albicans [23]): 23 µM | inhibition (Candida albicans [24]): Active | inhibition of growth at 0.09 µM (Candida albicans [25]): 100% | IC50 (Candida albicans [26]): 46.1 µM | inhibition at 46.05 µM (Candida albicans [27]): 98.2% | inhibition of growth at 0.72 µM (Candida albicans [28]): 99.4% | Activity [29]: 87% | Activity [30]: 80% | survival at 18 h, 46.05 µM [31]: 100% | inhibition of growth at 5.76 µM (Candida albicans [32]): 99.4% | Selectivity Index (Candida albicans [33]): 4 | inhibition of growth at 0.36 µM (Candida albicans [34]): 99.5% | log(activity) (Candida albicans [6]): -0.1 | Activity (Candida albicans [35]): Active | inhibition of growth at 23.02 µM (Candida albicans [36]): 99.4% | Activity [37]: 20% | IC50 (Candida albicans [8]): 46.1 µM | selectivity ratio [9]: 2 | Activity (Candida albicans [38]): Active | Activity [39]: 73% | inhibition of growth at 2.88 µM (Candida albicans [40]): 99.3% | Activity (Candida albicans [41]): Active | Activity (Candida albicans [42]): 97% | inhibition of growth at 0.18 µM (Candida albicans [43]): 99.4% | inhibition of growth at 46.05 µM (Candida albicans [44]): 99.4%
